From patent US10556865B2, “Synergistic herbicidal composition containing certain pyridine or pyrimidine carboxylic acids and certain cereal and rice herbicides” (Dow AgroSciences, LLC, priority 2007, dated 2020)
Where “and” joins values, the source holds several entries; their conditions need not be identical. Identical values can stand only once.

Columns and labels:
Assay type in all cases: in vivo
[1] = test system: Scirpus maritimus L. (SCPMA); experiment: Herbicidal mixtures for weed control in transplanted paddy rice (in-water application, visual % injury)
Procedure, shortened: (§1)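 Read-out: visual injury scored 0 (none) to 100 (complete kill) relative to untreated plants 3 weeks after treatment. Plants at the second or third true leaf stage in flooded mud received an injection of herbicide stock into the water; solvent-blank controls received the same acetone and crop oil levels.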

[2] = test system: Eleocharis kuroguwai OHWI (ELOKU); experiment: as above
Procedure, shortened: as §1

[3] = test system: Ipomoea hederacea (L.) JACQ. (IPOHE); experiment: Postemergence herbicidal mixtures for weed control in direct seeded rice (greenhouse, visual % injury after 3 weeks); conditions: for % Injury Ob: IPOHE
[4] = test system: Digitaria sanguinalis (L.) SCOP. (DIGSA); experiment: Postemergence herbicidal mixtures for weed control in direct seeded rice (greenhouse, visual % injury)
[5] = test system: Polygonum persicaria L. (POLPE); experiment: as above

SMILES	% Injury Ob ([1]; 35 g/ha alone) [%]	% Injury Ob ([1]; 70 g/ha alone) [%]	% Injury Ob ([2]; 35 g/ha alone) [%]	% Injury Ob ([2]; 70 g/ha alone) [%]	% Injury Ob ([3]; 4.38 g/ha alone) [%]	% Injury Ob ([3]; 8.75 g/ha alone) [%]	% Injury Ob ([3]; 17.5 g/ha alone) [%]	% Injury IPOHE Ob ([3]; alone 4.38 g/ha)	% Injury IPOHE Ob ([3]; alone 17.5 g/ha)	% Injury Ob ([4]; 8.75 g/ha alone) [%]	% Injury Ob ([4]; 17.5 g/ha alone) [%]	% Injury POLPE Ob ([5]; alone 8.75 g/ha) [%]	% Injury POLPE Ob ([5]; alone 17.5 g/ha) [%]
COc1c(Cl)ccc(-c2cc(N)c(Cl)c(C(=O)O)n2)c1F [Compound A TEA, 4-amino-3-chloro-6-(4-chloro-2-fluoro-3-methoxyphenyl)pyridine-2-carboxylic acid]	0	50	30	20	–	–	–	–	–	–	–	–	–
COC(=O)c1nc(-c2ccc(Cl)c(OC)c2F)cc(N)c1Cl [Compound A Methyl, 4-amino-3-chloro-6-(4-chloro-2-fluoro-3-methoxyphenyl)pyridine-2-carboxylic acid methyl ester]	–	–	–	–	20	40	75	10% and 0%	85% and 75%	20	50	50	90
